# Assay results from US10710978B2, “STK4 inhibitors for treatment of hematologic malignancies” (Dana-Farber Cancer Institute, Inc., priority 2015, dated 2020).
# Where two headings read alike, the source gives them in different places.
# Columns and labels:
# Assay in all cases: KiNativ assay
# Type in all cases: binding
# Conditions in all cases: H929 live cell
# HPK1 = HPK1 (Homo sapiens (Human), UniProt Q92918)
# Method: (§1) Biochemical IC50s of the compounds of the present disclosure against various kinases were measured in a KiNativ assay. Compounds were screened in duplicate at 10 μM in H929 live cell. IC50 was measured via Mass spectroscopy (MS).
# SNRK = SNRK (Homo sapiens (Human), UniProt Q9NRH2)
# Method: as §1
# CK1a = CK1a (Homo sapiens (Human), UniProt P48729)
# Method: as §1
# PKD2 = PKD2 (Homo sapiens (Human), UniProt Q9BZL6)
# Method: as §1
# CDK11, CDK8 = system: CDK11, CDK8
# Method: as §1
# RSK2 domain1 = RSK2 domain1 (Homo sapiens (Human), UniProt P51812)
# Method: as §1
# MAP2K6 = MAP2K6 (Homo sapiens (Human), UniProt P52564)
# Method: as §1
# ILK = ILK (Homo sapiens (Human), UniProt Q13418)
# Method: as §1
# MPSK1 = MPSK1 (Homo sapiens (Human), UniProt O75716)
# Method: as §1
# NEK7 = NEK7 (Homo sapiens (Human), UniProt Q8TDX7)
# Method: as §1
# CaMK2d = CaMK2d (Homo sapiens (Human), UniProt Q13557)
# Method: as §1
# PLK1 = PLK1 (Homo sapiens (Human), UniProt P53350)
# Method: as §1
# EphB2 = EphB2 (Homo sapiens (Human), UniProt P29323)
# Method: as §1
# NEK4 = NEK4 (Homo sapiens (Human), UniProt P51957)
# Method: as §1
# PEK = PEK (Homo sapiens (Human), UniProt Q9NZJ5)
# Method: as §1
# MST4 = system: MST4
# Method: as §1
# STLK5 = STLK5 (Homo sapiens (Human), UniProt Q7RTN6)
# Method: as §1
# PRPK = PRPK (Homo sapiens (Human), UniProt Q96S44)
# Method: as §1
# p38d, p38g = system: p38d, p38g
# Method: as §1
# RSK1 domain1 = RSK1 domain1 (Homo sapiens (Human), UniProt Q15418)
# Method: as §1
# MAP2K3 = MAP2K3 (Homo sapiens (Human), UniProt P46734)
# Method: as §1
# GCN2 domain2 = GCN2 domain2 (Homo sapiens (Human), UniProt Q9P2K8)
# Method: as §1
# TLK2 = TLK2 (Homo sapiens (Human), UniProt Q86UE8)
# Method: as §1
# NuaK2 = NuaK2 (Homo sapiens (Human), UniProt Q9H093)
# Method: as §1
# PIP4K2A = PIP4K2A (Homo sapiens (Human), UniProt P48426)
# Method: as §1
# RSK1 domain2 = RSK1 domain2 (Homo sapiens (Human), UniProt Q15418)
# Method: as §1
# MASTL = MASTL (Homo sapiens (Human), UniProt Q96GX5)
# Method: as §1
# CDK5 = CDK5 (Homo sapiens (Human), UniProt Q00535)
# Method: as §1
# CDK2 = CDK2 (Homo sapiens (Human), UniProt P24941)
# Method: as §1
# PIK3C3 = PIK3C3 (Homo sapiens (Human), UniProt Q8NEB9)
# Method: as §1
# JAK1 domain1 = JAK1 domain1 (Homo sapiens (Human), UniProt P23458)
# Method: as §1
# ACK = ACK (Homo sapiens (Human), UniProt Q07912)
# Method: as §1
# SRPK2 = SRPK2 (Homo sapiens (Human), UniProt P78362)
# Method: as §1
# [1] = range class, read-out: % inhibition
# Sequence of MAP2K6 (P52564 whole entry): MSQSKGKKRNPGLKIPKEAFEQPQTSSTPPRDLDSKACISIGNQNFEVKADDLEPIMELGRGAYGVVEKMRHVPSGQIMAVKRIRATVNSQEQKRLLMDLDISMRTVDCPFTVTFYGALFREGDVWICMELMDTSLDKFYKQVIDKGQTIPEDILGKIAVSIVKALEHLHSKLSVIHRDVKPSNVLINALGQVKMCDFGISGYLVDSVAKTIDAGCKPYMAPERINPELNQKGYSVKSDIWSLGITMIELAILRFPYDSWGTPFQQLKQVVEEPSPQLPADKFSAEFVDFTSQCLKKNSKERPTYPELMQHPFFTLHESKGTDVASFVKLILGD
# Sequence of MPSK1 (O75716 whole entry): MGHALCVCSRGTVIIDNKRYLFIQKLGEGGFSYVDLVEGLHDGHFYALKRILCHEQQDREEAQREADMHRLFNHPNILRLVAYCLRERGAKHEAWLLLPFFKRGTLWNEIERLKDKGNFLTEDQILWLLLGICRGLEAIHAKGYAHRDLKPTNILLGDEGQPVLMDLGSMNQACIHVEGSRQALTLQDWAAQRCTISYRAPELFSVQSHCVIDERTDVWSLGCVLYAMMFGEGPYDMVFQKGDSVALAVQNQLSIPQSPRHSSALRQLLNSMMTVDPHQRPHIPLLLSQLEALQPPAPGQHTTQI
# Sequence of MAP2K3 (P46734 whole entry): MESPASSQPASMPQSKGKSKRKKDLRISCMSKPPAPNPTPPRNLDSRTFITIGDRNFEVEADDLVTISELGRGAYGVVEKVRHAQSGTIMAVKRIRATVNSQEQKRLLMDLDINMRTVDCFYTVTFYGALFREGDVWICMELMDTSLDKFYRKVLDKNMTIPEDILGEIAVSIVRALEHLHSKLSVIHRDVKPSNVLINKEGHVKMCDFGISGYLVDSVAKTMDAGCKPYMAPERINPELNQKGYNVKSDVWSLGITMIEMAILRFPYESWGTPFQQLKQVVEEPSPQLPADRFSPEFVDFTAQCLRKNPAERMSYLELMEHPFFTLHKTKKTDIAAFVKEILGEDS
# Sequence of SNRK (Q9NRH2 whole entry): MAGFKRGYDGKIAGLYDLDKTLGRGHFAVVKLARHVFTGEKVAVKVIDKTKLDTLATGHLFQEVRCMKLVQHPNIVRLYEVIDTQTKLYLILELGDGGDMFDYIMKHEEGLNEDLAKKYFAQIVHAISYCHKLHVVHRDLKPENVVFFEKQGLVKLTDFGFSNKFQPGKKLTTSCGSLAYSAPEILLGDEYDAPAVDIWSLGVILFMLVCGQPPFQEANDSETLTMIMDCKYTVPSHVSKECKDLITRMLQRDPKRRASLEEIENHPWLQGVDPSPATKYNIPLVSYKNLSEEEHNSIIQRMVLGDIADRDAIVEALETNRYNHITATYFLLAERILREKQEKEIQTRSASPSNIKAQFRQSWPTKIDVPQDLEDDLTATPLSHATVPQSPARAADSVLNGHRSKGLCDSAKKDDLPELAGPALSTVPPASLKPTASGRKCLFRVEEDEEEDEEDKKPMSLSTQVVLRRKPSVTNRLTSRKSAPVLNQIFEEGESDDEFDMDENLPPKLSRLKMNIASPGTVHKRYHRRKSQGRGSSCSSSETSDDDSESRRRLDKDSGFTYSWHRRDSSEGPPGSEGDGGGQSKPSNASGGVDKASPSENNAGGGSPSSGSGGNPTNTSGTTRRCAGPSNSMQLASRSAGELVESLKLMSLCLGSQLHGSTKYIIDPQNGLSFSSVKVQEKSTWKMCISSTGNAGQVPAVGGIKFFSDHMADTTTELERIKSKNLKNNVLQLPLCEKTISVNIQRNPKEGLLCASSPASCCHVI
# Sequence of NEK4 (P51957 whole entry): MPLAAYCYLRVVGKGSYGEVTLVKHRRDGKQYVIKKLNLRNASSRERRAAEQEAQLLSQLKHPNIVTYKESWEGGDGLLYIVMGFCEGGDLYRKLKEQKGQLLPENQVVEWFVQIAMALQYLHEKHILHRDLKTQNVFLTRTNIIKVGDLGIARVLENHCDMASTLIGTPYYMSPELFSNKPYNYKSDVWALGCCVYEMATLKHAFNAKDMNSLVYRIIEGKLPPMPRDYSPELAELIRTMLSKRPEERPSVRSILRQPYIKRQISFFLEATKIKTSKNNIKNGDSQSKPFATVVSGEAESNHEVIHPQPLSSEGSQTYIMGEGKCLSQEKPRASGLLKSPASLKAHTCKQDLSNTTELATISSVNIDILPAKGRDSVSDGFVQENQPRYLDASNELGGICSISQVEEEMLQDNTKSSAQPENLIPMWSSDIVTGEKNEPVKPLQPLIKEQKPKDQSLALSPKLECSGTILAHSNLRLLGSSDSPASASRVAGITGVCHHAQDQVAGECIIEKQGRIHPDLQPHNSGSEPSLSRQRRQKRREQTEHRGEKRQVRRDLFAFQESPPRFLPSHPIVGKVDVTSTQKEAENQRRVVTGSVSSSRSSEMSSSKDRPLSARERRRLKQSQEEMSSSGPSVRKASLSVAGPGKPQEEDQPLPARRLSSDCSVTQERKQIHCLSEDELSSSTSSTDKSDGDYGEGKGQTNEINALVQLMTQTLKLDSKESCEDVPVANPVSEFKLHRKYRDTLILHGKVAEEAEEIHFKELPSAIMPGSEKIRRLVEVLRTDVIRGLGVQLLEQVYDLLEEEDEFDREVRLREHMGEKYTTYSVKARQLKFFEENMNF
# Sequence of NuaK2 (Q9H093 whole entry): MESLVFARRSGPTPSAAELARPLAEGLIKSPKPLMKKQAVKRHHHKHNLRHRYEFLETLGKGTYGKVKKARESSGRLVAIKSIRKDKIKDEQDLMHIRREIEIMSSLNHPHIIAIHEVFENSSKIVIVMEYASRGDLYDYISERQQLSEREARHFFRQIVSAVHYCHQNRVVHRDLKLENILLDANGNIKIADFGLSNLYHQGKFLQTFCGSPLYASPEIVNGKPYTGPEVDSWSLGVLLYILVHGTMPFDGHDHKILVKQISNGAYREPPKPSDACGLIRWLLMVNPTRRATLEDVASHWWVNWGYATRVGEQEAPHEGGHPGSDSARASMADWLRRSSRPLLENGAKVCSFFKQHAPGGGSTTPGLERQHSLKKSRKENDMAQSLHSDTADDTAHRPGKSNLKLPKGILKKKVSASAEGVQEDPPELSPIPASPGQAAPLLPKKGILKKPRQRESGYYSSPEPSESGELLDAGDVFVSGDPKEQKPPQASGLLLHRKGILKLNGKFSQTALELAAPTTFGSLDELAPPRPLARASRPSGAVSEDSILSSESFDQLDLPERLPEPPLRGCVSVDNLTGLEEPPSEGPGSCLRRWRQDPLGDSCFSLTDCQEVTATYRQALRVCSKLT
# Sequence of PKD2 (Q9BZL6 whole entry): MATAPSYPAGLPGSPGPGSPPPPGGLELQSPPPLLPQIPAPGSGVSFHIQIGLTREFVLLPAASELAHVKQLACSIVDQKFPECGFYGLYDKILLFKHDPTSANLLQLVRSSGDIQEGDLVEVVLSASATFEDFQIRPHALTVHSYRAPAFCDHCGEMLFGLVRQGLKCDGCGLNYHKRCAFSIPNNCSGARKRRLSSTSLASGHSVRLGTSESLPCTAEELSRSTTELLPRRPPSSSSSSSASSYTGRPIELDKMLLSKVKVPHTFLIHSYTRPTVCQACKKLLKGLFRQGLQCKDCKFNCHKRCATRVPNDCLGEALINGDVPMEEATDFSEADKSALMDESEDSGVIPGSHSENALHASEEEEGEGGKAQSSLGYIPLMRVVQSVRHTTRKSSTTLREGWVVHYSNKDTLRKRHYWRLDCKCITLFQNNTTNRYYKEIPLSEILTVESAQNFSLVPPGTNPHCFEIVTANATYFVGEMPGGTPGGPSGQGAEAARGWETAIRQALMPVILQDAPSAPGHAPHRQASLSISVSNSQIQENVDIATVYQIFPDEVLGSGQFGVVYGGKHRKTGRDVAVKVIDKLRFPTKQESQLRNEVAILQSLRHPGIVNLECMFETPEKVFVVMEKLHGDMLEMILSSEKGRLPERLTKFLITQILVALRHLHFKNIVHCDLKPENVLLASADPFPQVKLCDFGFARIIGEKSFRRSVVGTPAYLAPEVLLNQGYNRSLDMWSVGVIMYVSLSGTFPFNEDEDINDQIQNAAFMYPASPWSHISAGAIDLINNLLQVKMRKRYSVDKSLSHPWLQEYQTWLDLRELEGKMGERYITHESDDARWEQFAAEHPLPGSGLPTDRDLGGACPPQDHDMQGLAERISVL
# Sequence of CK1a (P48729 whole entry): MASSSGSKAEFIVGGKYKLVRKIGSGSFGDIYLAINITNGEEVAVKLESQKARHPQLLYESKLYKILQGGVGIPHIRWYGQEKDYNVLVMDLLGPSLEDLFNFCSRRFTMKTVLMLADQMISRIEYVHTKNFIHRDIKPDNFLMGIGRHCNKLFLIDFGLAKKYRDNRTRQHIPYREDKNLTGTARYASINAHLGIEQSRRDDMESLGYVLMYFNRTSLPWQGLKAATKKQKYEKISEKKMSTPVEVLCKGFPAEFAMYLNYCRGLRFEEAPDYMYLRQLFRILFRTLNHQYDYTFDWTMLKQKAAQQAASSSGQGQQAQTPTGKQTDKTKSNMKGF
# Sequence of PRPK (Q96S44 whole entry): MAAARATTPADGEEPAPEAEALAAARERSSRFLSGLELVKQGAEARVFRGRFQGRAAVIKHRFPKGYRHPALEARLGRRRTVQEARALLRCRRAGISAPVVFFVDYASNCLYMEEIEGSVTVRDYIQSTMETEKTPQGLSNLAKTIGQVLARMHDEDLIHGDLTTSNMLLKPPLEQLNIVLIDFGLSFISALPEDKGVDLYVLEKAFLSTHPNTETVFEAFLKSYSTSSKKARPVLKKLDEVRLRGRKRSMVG
# Sequence of NEK7 (Q8TDX7 whole entry): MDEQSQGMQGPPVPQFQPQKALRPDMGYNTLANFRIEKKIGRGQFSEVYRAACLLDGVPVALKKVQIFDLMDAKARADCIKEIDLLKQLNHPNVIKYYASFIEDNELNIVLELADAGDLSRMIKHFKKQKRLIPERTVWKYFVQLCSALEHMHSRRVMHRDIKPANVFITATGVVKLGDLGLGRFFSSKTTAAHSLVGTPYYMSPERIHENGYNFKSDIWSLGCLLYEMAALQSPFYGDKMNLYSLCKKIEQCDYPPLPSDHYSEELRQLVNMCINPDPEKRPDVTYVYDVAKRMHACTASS
smiles,measurement,setting,value
"COc1cc(NS(=O)(=O)C2CC2)ccc1-c1cnc(N)c(-c2ccc3c(c2)CCNC3=O)c1 [Compound I-50, N-(4-(6-amino-5-(1-oxo-1,2,3,4-tetrahydroisoquinolin-6-yl)pyridin-3-yl)-3-methoxyphenyl) cyclopropanesulfonamide]",inhibition at 10 µM,HPK1; [1],> 90%
same,inhibition at 10 µM,HPK1; read-out: inhibition (10 μM),90.4%
same,inhibition at 10 µM,SNRK; [1],0%
same,inhibition at 10 µM,SNRK; read-out: inhibition (10 μM),33.2%
same,inhibition at 10 µM,CK1a; [1],0%
same,inhibition at 10 µM,CK1a; read-out: inhibition (10 μM),-20.9%
same,inhibition at 10 µM,PKD2; [1],50 to 75%
same,inhibition at 10 µM,PKD2; read-out: inhibition (10 μM),51.5%
same,% inhibition,"CDK11, CDK8; 10 μM, range class",35-40%
same,inhibition (10 μM),"CDK11, CDK8",38.1%
same,inhibition at 10 µM,RSK2 domain1; [1],0%
same,inhibition at 10 µM,RSK2 domain1; read-out: inhibition (10 μM),21%
same,inhibition at 10 µM,MAP2K6; [1],0%
same,inhibition at 10 µM,MAP2K6; read-out: inhibition (10 μM),10.9%
same,inhibition at 10 µM,ILK; [1],0%
same,inhibition at 10 µM,ILK; read-out: inhibition (10 μM),-18.8%
same,inhibition at 10 µM,MPSK1; [1],0%
same,inhibition at 10 µM,MPSK1; read-out: inhibition (10 μM),15.7%
same,inhibition at 10 µM,NEK7; [1],0%
same,inhibition at 10 µM,NEK7; read-out: inhibition (10 μM),-18.9%
same,inhibition at 10 µM,CaMK2d; [1],0%
same,inhibition at 10 µM,CaMK2d; read-out: inhibition (10 μM),15.9%
same,inhibition at 10 µM,PLK1; [1],0%
same,inhibition at 10 µM,PLK1; read-out: inhibition (10 μM),-11.1%
same,inhibition at 10 µM,EphB2; [1],0%
same,inhibition at 10 µM,EphB2; read-out: inhibition (10 μM),8.2%
same,inhibition at 10 µM,NEK4; [1],0%
same,inhibition at 10 µM,NEK4; read-out: inhibition (10 μM),25.1%
same,inhibition at 10 µM,PEK; [1],0%
same,inhibition at 10 µM,PEK; read-out: inhibition (10 μM),7.9%
same,% inhibition,"MST4; 10 μM, range class",0.0%
same,inhibition (10 μM),MST4,−68.1%
same,inhibition at 10 µM,STLK5; [1],0%
same,inhibition at 10 µM,STLK5; read-out: inhibition (10 μM),-22.3%
same,inhibition at 10 µM,PRPK; [1],0%
same,inhibition at 10 µM,PRPK; read-out: inhibition (10 μM),-23.6%
same,% inhibition,"p38d, p38g; 10 μM, range class",0.0%
same,inhibition (10 μM),"p38d, p38g",7.4%
same,inhibition at 10 µM,RSK1 domain1; [1],0%
same,inhibition at 10 µM,RSK1 domain1; read-out: inhibition (10 μM),-4.6%
same,inhibition at 10 µM,MAP2K3; [1],0%
same,inhibition at 10 µM,MAP2K3; read-out: inhibition (10 μM),-5.7%
same,inhibition at 10 µM,GCN2 domain2; [1],0%
same,inhibition at 10 µM,GCN2 domain2; read-out: inhibition (10 μM),-12.3%
same,inhibition at 10 µM,TLK2; [1],0%
same,inhibition at 10 µM,TLK2; read-out: inhibition (10 μM),-3%
same,inhibition at 10 µM,NuaK2; [1],35 to 40%
same,inhibition at 10 µM,NuaK2; read-out: inhibition (10 μM),40.8%
same,inhibition at 10 µM,PIP4K2A; [1],0%
same,inhibition at 10 µM,PIP4K2A; read-out: inhibition (10 μM),-5.5%
same,inhibition at 10 µM,RSK1 domain2; [1],0%
same,inhibition at 10 µM,RSK1 domain2; read-out: inhibition (10 μM),1%
same,inhibition at 10 µM,MASTL; [1],0%
same,inhibition at 10 µM,MASTL; read-out: inhibition (10 μM),-1.4%
same,inhibition at 10 µM,CDK5; [1],0%
same,inhibition at 10 µM,CDK5; read-out: inhibition (10 μM),11.3%
same,inhibition at 10 µM,CDK2; [1],0%
same,inhibition at 10 µM,CDK2; read-out: inhibition (10 μM),17.3%
same,inhibition at 10 µM,PIK3C3; [1],0%
same,inhibition at 10 µM,PIK3C3; read-out: inhibition (10 μM),-32.5%
same,inhibition at 10 µM,JAK1 domain1; [1],0%
same,inhibition at 10 µM,JAK1 domain1; read-out: inhibition (10 μM),-19.8%
same,inhibition at 10 µM,ACK; [1],0%
same,inhibition at 10 µM,ACK; read-out: inhibition (10 μM),11.3%
same,inhibition at 10 µM,SRPK2; [1],0%
same,inhibition at 10 µM,SRPK2; read-out: inhibition (10 μM),1.8%
